Key:
[1] = system: MCF-7 human breast cancer cells; set-up: method as in earlier work; conditions: granted patent CN102727470; cited from earlier work
CD-1 mice = experiment: Uterotrophic assay, 3 days beginning on PND 21; assay type: in vivo; conditions: combined with 400 μg kg^−1 bw d^−1 E2; 250 and 500 mg kg^−1 d^−1 groups; P<0.01
Method: […] […] Ten mice per group were used for the assays. Error bars indicate the s.d.'s from the average. *P<0.05 compared with the corresponding control. **P<0.01 compared with the corresponding control. Significance was tested by Fisher's LSD test.

Oc1ccc(C2(c3ccc(O)cc3)c3ccccc3-c3ccccc32)cc1 [BHPF, 9,9-bis(4-hydroxyphenyl)-fluorene]
proliferation of MCF-7 human breast cancer cells [1]: inhibited the proliferation
effect on uterotrophic effect of E2 (CD-1 mice): inhibited the uterotrophic effect of E2
